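Dose response: 5 concentrations. Exposure: 48 h. Format: 96-well plates. Endpoint: linear interpolation; highest concentration if not reached. At the TGI there is no net growth.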 *1 amine or outer side, *2 acyl side, *3 side chain or, on linkers, in order; H or OH if unused. Where a SMILES comes first, the peptide text is derived from it. Bridges are numbered along the chain shown (N, C = ends). [ ]: non-standard residue; d: D form. The star is where a group is joined. X34 = O=C(C(CCCCNO[*:3])N[*:1])[*:2]; Fmoc = O=C(OCC1c2ccccc2-c2ccccc21)*
Legend:
Assay in all cases: NCI anticancer screen, dose series, 48 h
[1] = test system: OVCAR-3 ovarian
[2] = test system: CCRF-CEM leukemia
[3] = test system: HS 578T breast
[4] = test system: OVCAR-8 ovarian
[5] = test system: HT29 colon
[6] = test system: SW-620 colon
[7] = test system: EKVX NSCLC
[8] = test system: HOP-62 NSCLC
[9] = test system: NCI-H226 lung
[10] = test system: SNB-75 CNS
[11] = test system: MDA-MB-231 breast
[12] = test system: MALME-3M melanoma
[13] = test system: HCC-2998 colon
[14] = test system: SF-295 CNS
[15] = test system: K-562 leukemia
[16] = test system: MDA-N
[17] = test system: A498 renal

Row | Compound | TGI [1] [µM] | TGI [2] [µM] | TGI [3] [µM] | TGI [4] [µM] | TGI [5] [µM] | TGI [6] [µM] | TGI [7] [µM] | TGI [8] [µM] | TGI [9] [µM] | TGI [10] [µM] | TGI [11] [µM] | TGI [12] [µM] | TGI [13] [µM] | TGI [14] [µM] | TGI [15] [µM] | TGI [16] [µM] | TGI [17] [µM]
1 | NC(=O)CNC(=O)C1CCCN1C(=O)C1CCCCNOC(=O)CCC(NC(=O)OCC2c3ccccc3-c3ccccc32)C(=O)NC(Cc2c[nH]c3ccccc23)C(=O)N1 (stereo not drawn) (Fmoc-EW[X34]PG-NH2; ester 1-3; configuration not given here) | > 100 | > 100 | > 100 | > 100 | > 100 | > 100 | > 100 | > 100 | > 100 | > 100 | > 100 | > 100 | > 100 | > 100 | > 100 | – | –
2 | CC(C)(C)OC(=O)NCCNCCNc1ccccc1 | > 100 | > 100 | – | > 100 | > 100 | > 100 | > 100 | > 100 | > 100 | > 100 | > 100 | > 100 | > 100 | > 100 | > 100 | > 100 | –
3 | COc1ccc(/C(=C/n2ccnc2)C(O)c2ccc(OC)c(OC)c2)cc1OC (stereo not drawn) | > 100 | > 100 | – | > 100 | > 100 | > 100 | – | > 100 | > 100 | > 100 | – | – | – | > 100 | > 100 | – | > 100
4 | COc1ccc(N=NC(=Nc2ccc(Cl)cc2)c2ccc(N(CCC#N)CCC#N)cc2)cc1 | > 100 | – | > 100 | > 100 | > 100 | > 100 | > 100 | > 100 | > 100 | > 100 | > 100 | – | > 100 | > 100 | > 100 | > 100 | > 100
5 | COc1ccc(NC(=O)C(C)Oc2ccc(OCC3CCCCC3)cc2)cc1 (stereo not drawn) | > 100 | > 100 | – | > 100 | > 100 | – | – | – | > 100 | > 100 | – | > 100 | > 100 | – | > 100 | – | > 100
6 | CCOC(OCC)N1C(=O)C2(C(OCC)OCC)CC3C(OC(=O)N3N)c3cccc1c32 (stereo not drawn) | > 100 | > 100 | – | > 100 | > 100 | > 100 | > 100 | > 100 | > 100 | – | > 100 | > 100 | > 100 | > 100 | – | > 100 | > 100
7 | O=S(=O)(SC1=NCCN1)c1cccc2ccccc12 | > 100 | > 100 | – | > 100 | > 100 | > 100 | > 100 | > 100 | 73 | 46 | 45.6 | > 100 | > 10 | 51.2 | 63.5 | 39.4 | 89.7
8 | Oc1c(Br)cc(/C=C/c2cccc(/C=C/c3cc(Br)c(O)c(Br)c3)n2)cc1Br | 31.1 | – | 66.9 | 41.7 | 25.1 | 50.6 | 34 | > 100 | – | 31.6 | 49.4 | – | 18.8 | 47.4 | 23.7 | 39.6 | 25
9 | CC(C)(C)OC(=O)NCCCC(=O)NC1(c2cc3ccccc3s2)CCCCC1 | 39.2 | 28.4 | 45.8 | 48.3 | 30.6 | 52.8 | 35.9 | 41.5 | – | 27.7 | – | 37 | 48.5 | 34 | 51.4 | 34.2 | 51
10 | CN(C)CCNC(=O)Cn1cnc2cccc([N+](=O)[O-])c2c1=O | > 100 | > 100 | > 100 | – | > 100 | > 100 | > 100 | > 100 | > 100 | – | – | > 100 | > 100 | > 100 | > 100 | > 100 | > 100
11 | C=CCN1/C(=C2\SC(=S)N(c3ccc(C)cc3)C2=O)Sc2c1nc[nH]c2=O | > 100 | > 100 | – | > 100 | > 100 | > 100 | > 100 | > 100 | > 100 | – | – | > 100 | – | > 100 | > 100 | – | > 100
12 | CN(C(=O)C1=CCC2(CC1)OCCO2)c1ccccc1I | > 100 | > 100 | – | > 100 | > 100 | > 100 | > 100 | > 100 | > 100 | > 100 | > 100 | – | > 100 | > 100 | > 100 | > 100 | > 100
13 | CN(C)c1nncc2n[nH]nc12 | > 100 | > 100 | – | > 100 | > 100 | > 100 | > 100 | > 100 | > 100 | > 100 | – | > 100 | > 100 | > 100 | > 100 | > 100 | > 100
14 | CC(=O)OC[C@@]12Cc3ccc(C)c(O)c3[C@]1(C)[C@@H](OC(C)=O)[C@]1(O)[C@H]([C@@H](OC(=O)c3ccccc3)[C@@H](C)[C@H]1OC(C)=O)[C@H]2OC(C)=O | > 50 | > 50 | > 50 | > 50 | – | > 50 | > 50 | > 50 | > 50 | > 50 | > 50 | – | > 50 | > 50 | > 50 | – | > 50
15 | O=C1c2ccccc2C(=O)C1C(c1ccc(F)cc1)C1C(=O)c2ccccc2C1=O | > 100 | > 100 | – | > 100 | > 100 | > 100 | > 100 | > 100 | > 100 | > 100 | – | > 100 | > 100 | > 100 | > 100 | – | –

From PubChem BioAssay (NCI)
